≈ marks a conversion by molar mass, not a printed value.
Key:
Assay in all cases: MIC, CLSI broth microdilution, Test Example 2
Format in all cases: cell-based
E. coli ATCCBAA-200 = conditions: Escherichia coli, ATCCBAA200; SHV-4 ESBL producing strain; cation-adjusted Iso-Sensitest broth containing human Apo-transferrin; 5×10^5 cfu/mL; read-out: Minimum Inhibitory Concentration (MIC) E. coli ATCC BAA-200
Procedure: (§1) Measurement of Minimum Inhibitory Concentration (MIC: μg/mL) was conducted according to CLSI (Clinical and Laboratory Standards Institute) method, and the amount of bacteria for inoculation was 5×10^5 cfu/mL, and cation-adjusted Iso-Sensitest broth containing human Apo-transferrin was used as a test medium, and the experiment was conducted using broth microdilution method.

P. aeruginosa SR01335 = conditions: Pseudomonas aeruginosa, SR01335; VIM-1 like MBL producing strain (carbapenem resistance strain); cation-adjusted Iso-Sensitest broth containing human Apo-transferrin; 5×10^5 cfu/mL; read-out: Minimum Inhibitory Concentration (MIC) P. aeruginosa SR01335
Procedure: as §1

P. aeruginosa SR01332 = conditions: Pseudomonas aeruginosa, SR01332; VIM-11 MBL producing strain (carbapenem resistance strain); cation-adjusted Iso-Sensitest broth containing human Apo-transferrin; 5×10^5 cfu/mL; read-out: Minimum Inhibitory Concentration (MIC) P. aeruginosa SR01332
Procedure: as §1

E. coli ATCCBAA-196 = conditions: Escherichia coli, ATCCBAA196; TEM-10 ESBL producing strain; cation-adjusted Iso-Sensitest broth containing human Apo-transferrin; 5×10^5 cfu/mL; read-out: Minimum Inhibitory Concentration (MIC) E. coli ATCC BAA-196
Procedure: as §1

K. pneumoniae ATCC700603 = conditions: Klebsiella pneumoniae, ATCC700603; SHV18 ESBL producing strain; cation-adjusted Iso-Sensitest broth containing human Apo-transferrin; 5×10^5 cfu/mL; read-out: Minimum Inhibitory Concentration (MIC) K. pneumoniae ATCC 700603
Procedure: as §1

E. cloacae NCTC13464 = conditions: Enterobacter cloacae, NCTC13464; CTX-M group 9 ESBL producing strain; cation-adjusted Iso-Sensitest broth containing human Apo-transferrin; 5×10^5 cfu/mL; read-out: Minimum Inhibitory Concentration (MIC) E. cloacae NCTC 13464
Procedure: as §1

A. baumannii SR01331 = conditions: Acinetobacter baumannii, SR01331; PER-1, OXA-23.51 ESBL- & OXA-type carbapenemase producing strain; cation-adjusted Iso-Sensitest broth containing human Apo-transferrin; 5×10^5 cfu/mL; read-out: Minimum Inhibitory Concentration (MIC) A. baumannii SR01331
Procedure: as §1

E. coli SR01337 = conditions: Escherichia coli, SR01337; TEM-1 ESBL producing strain; cation-adjusted Iso-Sensitest broth containing human Apo-transferrin; 5×10^5 cfu/mL; read-out: Minimum Inhibitory Concentration (MIC) E. coli SR01337
Procedure: as §1

Row | SMILES | MIC (E. coli ATCCBAA-200) | MIC (P. aeruginosa SR01335) | MIC (P. aeruginosa SR01332) | MIC (E. coli ATCCBAA-196) | MIC (K. pneumoniae ATCC700603) | MIC (E. cloacae NCTC13464) | MIC (A. baumannii SR01331) | MIC (E. coli SR01337)
1 | C[N+](C)(CCNC(=O)c1ccc(O)c(O)c1Cl)CC1=C(c2nnn[nH]2)N2C(=O)[C@@H](NC(=O)/C(=N\O[C@@H](CC(=O)O)C(=O)[O-])c3nc(N)sc3Cl)[C@H]2SC1 [Compound I-101] | 0.063 µg/mL (≈ 0.0773 µM) | 1 µg/mL (≈ 1.23 µM) | 2 µg/mL (≈ 2.46 µM) | ≤ 0.031 µg/mL | 0.125 µg/mL (≈ 0.153 µM) | 0.063 µg/mL (≈ 0.0773 µM) | 0.25 µg/mL (≈ 0.307 µM) | ≤ 0.031 µg/mL
2 | Nc1nc(/C(=N/O[C@@H](CC(=O)O)C(=O)[O-])C(=O)N[C@@H]2C(=O)N3C(c4nnn[nH]4)=C(C[N+]4(CCNC(=O)c5ccc(O)c(O)c5F)CCCC4)CS[C@H]23)cs1 [Compound I-102] | 0.063 µg/mL (≈ 0.0798 µM) | 1 µg/mL (≈ 1.27 µM) | 4 µg/mL (≈ 5.06 µM) | ≤ 0.031 µg/mL | ≤ 0.031 µg/mL | 0.063 µg/mL (≈ 0.0798 µM) | 0.25 µg/mL (≈ 0.317 µM) | ≤ 0.031 µg/mL
3 | Nc1nc(/C(=N/O[C@@H](CC(=O)O)C(=O)[O-])C(=O)N[C@@H]2C(=O)N3C(c4nnn[nH]4)=C(C[N+]4(CCNC(=O)c5ccc(O)c(O)c5F)CCCC4)CS[C@H]23)c(Cl)s1 [Compound I-103] | 0.125 µg/mL (≈ 0.152 µM) | 1 µg/mL (≈ 1.21 µM) | 2 µg/mL (≈ 2.43 µM) | ≤ 0.031 µg/mL | 0.5 µg/mL (≈ 0.607 µM) | 0.125 µg/mL (≈ 0.152 µM) | 0.25 µg/mL (≈ 0.303 µM) | ≤ 0.031 µg/mL
4 | CC(C)(O/N=C(\C(=O)N[C@@H]1C(=O)N2C(c3nnn[nH]3)=C(C[N+]3(CCNC(=O)c4cc(O)c(O)c(F)c4)CCCC3)CS[C@H]12)c1nc(N)sc1Cl)C(=O)[O-] [Compound I-104] | 0.063 µg/mL (≈ 0.0793 µM) | 2 µg/mL (≈ 2.52 µM) | 4 µg/mL (≈ 5.04 µM) | ≤ 0.031 µg/mL | 0.125 µg/mL (≈ 0.157 µM) | 0.125 µg/mL (≈ 0.157 µM) | 0.5 µg/mL (≈ 0.63 µM) | ≤ 0.031 µg/mL
5 | CC(C)(O/N=C(\C(=O)N[C@@H]1C(=O)N2C(c3nnn[nH]3)=C(C[N@+]34CCC[C@H]3CN(C(=O)c3ccc(O)c(O)c3Cl)CC4)CS[C@H]12)c1nc(N)sc1Cl)C(=O)[O-] [Compound I-105] | 0.25 µg/mL (≈ 0.304 µM) | 2 µg/mL (≈ 2.43 µM) | 4 µg/mL (≈ 4.86 µM) | 0.063 µg/mL (≈ 0.0766 µM) | 0.25 µg/mL (≈ 0.304 µM) | 0.25 µg/mL (≈ 0.304 µM) | 2 µg/mL (≈ 2.43 µM) | ≤ 0.031 µg/mL
6 | CC(C)(O/N=C(\C(=O)N[C@@H]1C(=O)N2C(c3nnn[nH]3)=C(C[N+]3(CCNC(=O)c4ccc(O)c(O)c4F)CCCC3)CS[C@H]12)c1nc(N)sc1Cl)C(=O)[O-] [Compound I-106] | 0.063 µg/mL (≈ 0.0793 µM) | 1 µg/mL (≈ 1.26 µM) | 4 µg/mL (≈ 5.04 µM) | ≤ 0.031 µg/mL | ≤ 0.031 µg/mL | 0.063 µg/mL (≈ 0.0793 µM) | 0.5 µg/mL (≈ 0.63 µM) | ≤ 0.031 µg/mL
7 | CC(C)(O/N=C(\C(=O)N[C@@H]1C(=O)N2C(c3nnn[nH]3)=C(C[N+]3(CCNC(=O)c4ccc(O)c(O)c4F)CCCC3)CS[C@H]12)c1nsc(N)n1)C(=O)[O-] [Compound I-107] | 0.5 µg/mL (≈ 0.657 µM) | 2 µg/mL (≈ 2.63 µM) | 2 µg/mL (≈ 2.63 µM) | 0.25 µg/mL (≈ 0.329 µM) | 0.125 µg/mL (≈ 0.164 µM) | 0.063 µg/mL (≈ 0.0828 µM) | 0.5 µg/mL (≈ 0.657 µM) | 0.063 µg/mL (≈ 0.0828 µM)
8 | CC(C)(O/N=C(\C(=O)N[C@@H]1C(=O)N2C(c3nnn[nH]3)=C(C[N+]3(CCNC(=O)c4cc(O)c(O)c(F)c4)CCCC3)CS[C@H]12)c1nsc(N)n1)C(=O)[O-] [Compound I-108] | 0.25 µg/mL (≈ 0.329 µM) | 2 µg/mL (≈ 2.63 µM) | 2 µg/mL (≈ 2.63 µM) | 0.25 µg/mL (≈ 0.329 µM) | 0.25 µg/mL (≈ 0.329 µM) | 0.125 µg/mL (≈ 0.164 µM) | 1 µg/mL (≈ 1.31 µM) | ≤ 0.031 µg/mL
9 | Cc1cc2cc(O)c(O)cc2c[n+]1CC1=C(c2nnn[nH]2)N2C(=O)[C@@H](NC(=O)/C(=N\OC(C)(C)C(=O)O)c3nsc(N)n3)[C@H]2SC1.[Na+] [Compound I-109] | 1 µg/mL | 1 µg/mL | 0.5 µg/mL | 0.5 µg/mL | 0.25 µg/mL | 0.125 µg/mL | 0.5 µg/mL | ≤ 0.031 µg/mL
10 | CC(C)(O/N=C(\C(=O)N[C@@H]1C(=O)N2C(c3nnn[n-]3)=C(C[n+]3ccc4cc(O)c(O)cc4c3)CS[C@H]12)c1nsc(N)n1)C(=O)[O-].[Na+] [Compound I-113] | 0.25 µg/mL | 0.25 µg/mL | 0.5 µg/mL | 0.125 µg/mL | 0.125 µg/mL | ≤ 0.031 µg/mL | 0.125 µg/mL | ≤ 0.031 µg/mL
11 | CC(C)(O/N=C(\C(=O)N[C@@H]1C(=O)N2C(c3nnn[n-]3)=C(C[n+]3ccc(CNC(=O)c4ccc(O)c(O)c4Cl)cc3)CS[C@H]12)c1nsc(N)n1)C(=O)[O-].[Na+] [Compound I-114] | 1 µg/mL | 1 µg/mL | 1 µg/mL | 0.5 µg/mL | 1 µg/mL | 0.25 µg/mL | 0.5 µg/mL | ≤ 0.031 µg/mL
12 | CC(C)(O/N=C(\C(=O)N[C@@H]1C(=O)N2C(c3nnn[nH]3)=C(C[n+]3cccc4c3CCCN4C(=O)c3ccc(O)c(O)c3Cl)CS[C@H]12)c1nsc(N)n1)C(=O)O.[Na+] [Compound I-115] | 1 µg/mL | 1 µg/mL | 2 µg/mL | 1 µg/mL | 0.5 µg/mL | 1 µg/mL | 0.5 µg/mL | ≤ 0.031 µg/mL
13 | CC(C)(O/N=C(\C(=O)N[C@@H]1C(=O)N2C(c3nnn[n-]3)=C(C[n+]3ccc(NC(=O)c4ccc(O)c(O)c4Cl)cc3)CS[C@H]12)c1nsc(N)n1)C(=O)[O-].[Na+] [Compound I-116] | 1 µg/mL | 1 µg/mL | 2 µg/mL | 0.5 µg/mL | 0.25 µg/mL | ≤ 0.031 µg/mL | 0.25 µg/mL | ≤ 0.031 µg/mL
14 | CC(C)(O/N=C(\C(=O)N[C@@H]1C(=O)N2C(c3nnn[nH]3)=C(C[N+]3(C)[C@@H]4CC[C@H]3C[C@@H](NC(=O)c3cc(O)c(O)c(F)c3)C4)CS[C@H]12)c1nsc(N)n1)C(=O)O.[Na+] (stereo partly drawn) [Compound I-117] | 1 µg/mL | 2 µg/mL | 4 µg/mL | 1 µg/mL | 0.25 µg/mL | 0.5 µg/mL | 0.5 µg/mL | 0.063 µg/mL
15 | CC(C)(O/N=C(\C(=O)N[C@@H]1C(=O)N2C(c3nnn[nH]3)=C(C[N+]3(CCNC(=O)c4ccc(O)c(O)c4Cl)CCCCC3)CS[C@H]12)c1nsc(N)n1)C(=O)[O-] [Compound I-118] | 0.25 µg/mL (≈ 0.316 µM) | 1 µg/mL (≈ 1.26 µM) | 8 µg/mL (≈ 10.1 µM) | 0.25 µg/mL (≈ 0.316 µM) | 0.063 µg/mL (≈ 0.0796 µM) | 0.25 µg/mL (≈ 0.316 µM) | 0.25 µg/mL (≈ 0.316 µM) | ≤ 0.031 µg/mL
16 | CC(C)(O/N=C(\C(=O)N[C@@H]1C(=O)N2C(c3nnn[nH]3)=C(C[N+]3(CCNC(=O)c4cc(O)c(O)c(Cl)c4)CCCC3)CS[C@H]12)c1nsc(N)n1)C(=O)[O-] [Compound I-119] | 0.5 µg/mL (≈ 0.643 µM) | 2 µg/mL (≈ 2.57 µM) | 4 µg/mL (≈ 5.15 µM) | 0.5 µg/mL (≈ 0.643 µM) | 0.25 µg/mL (≈ 0.322 µM) | 0.125 µg/mL (≈ 0.161 µM) | 0.5 µg/mL (≈ 0.643 µM) | ≤ 0.031 µg/mL
17 | Cc1cc2cc(O)c(O)cc2c[n+]1CC1=C(c2nnn[n-]2)N2C(=O)[C@@H](NC(=O)/C(=N\OC(C)(C)C(=O)[O-])c3csc(N)n3)[C@H]2SC1.[Na+] [Compound I-121] | ≤ 0.031 µg/mL | 0.5 µg/mL | 1 µg/mL | ≤ 0.031 µg/mL | ≤ 0.031 µg/mL | 0.063 µg/mL | 0.125 µg/mL | ≤ 0.031 µg/mL
18 | CC(C)(O/N=C(\C(=O)N[C@@H]1C(=O)N2C(c3nnn[nH]3)=C(C[N+]34CCCC3CN(C(=O)c3cc(O)c(O)c(Cl)c3)CC4)CS[C@H]12)c1nsc(N)n1)C(=O)[O-] (stereo partly drawn) [Compound I-122] | 0.25 µg/mL (≈ 0.317 µM) | 1 µg/mL (≈ 1.27 µM) | 4 µg/mL (≈ 5.07 µM) | 0.125 µg/mL (≈ 0.158 µM) | 0.125 µg/mL (≈ 0.158 µM) | 0.063 µg/mL (≈ 0.0798 µM) | 0.25 µg/mL (≈ 0.317 µM) | ≤ 0.031 µg/mL

— patent US9334289B2, “Cephem compound having catechol or pseudo-catechol structure” (SHIONOGI & CO., LTD., priority 2011, dated 2016)
